{"source": "patent US20140303092A1", "about": "(CHIMERIX, INC., priority 2011, published 2014)", "assay": "Study HDP-CDV-201: safety and tolerability (adverse events, laboratory abnormalities, discontinuations)", "type": "in vivo, human (adult allogeneic HSCT recipients)", "conditions": "40 mg QW", "protocol": "Clinical Studies of HDP-CDV were performed and described in detail in the following Examples. For example, HDP-CDV-201 is a placebo-controlled, dose-escalating trial in HSCT CMV (R+) recipients, evaluating the ability of HDP-CDV to prevent or control CMV infection was carried out. Five cohorts were established in which participants or subjects received either placebo or the HDP-CDV orally, in doses ranging from 40 mg weekly (QW) to 200 mg twice weekly (BIW). Subjects who were post-HSCT were enrolled at the time of engraftment and randomized to HDP-CDV or placebo (3 to 1 ratio) and received blinded therapy until approximately 100 day post-transplantation. HDP-CDV doses were 40 mg QW, 100 mg QW, 200 mg QW, 200 mg BIW and 100 mg BIW. Escalation to the next dose was decided by the data monitoring committee after review of the safety data from the previous Cohort. Subjects who developed CMV disease or CMV infection requiring pre-emptive therapy with local standard of care were discontinued from blinded therapy and followed for 4 weeks. Subjects who completed treatment with blinded therapy were followed for 8 weeks post-therapy.\nData from Study HDP-CDV-201 also provided characterization of the safety and tolerability profile of HDP-CDV when administered for the prevention or control of CMV infection in high risk (R^+) post-HSCT adult subjects.\nThe Safety population (SAFETY) included all randomized subjects who took at least one dose of study treatment. This population was used to summarize safety outcomes based on the treatment actually received, in cases where a subject was treated contrary to the randomization schedule.\nThe safety and tolerability profile of HDP-CDV, including subject demographics and Baseline characteristics; the AE profile; and laboratory abnormalities of interest were analyzed in the cohorts followed in this investigation.\nSubjects completing the treatment period received a full course of study medication; those completing the entire study attended visits through 8 weeks of follow up. Subjects who discontinued treatment may have done so for protocol specified reasons (e.g. development of clinically significant CMV infection requiring preemptive treatment with excluded anti-CMV medications) or for other reasons (e.g., withdrawal, adverse events, loss to follow-up). The disposition of subjects in Study HDP-CDV-201 during the double-blind, placebo-controlled treatment period (through Week 11) is listed by dosing Cohort in TABLE 23.\nAdverse events were examined by severity to ensure that all safety signals were identified in this study population. Because of the frequency of events in HSCT recipients, particular attention was given to evaluation of Grade 3 […], 4 (severe), and 5 (fatal) adverse events.\nOnly those preferred terms for which at least one Grade 3 or higher event was experienced in any treatment group are listed. Cytomegalovirus-related AEs are excluded from this analysis.\nHDP-CDV is a lipid conjugate of CDV. Because CDV is known to have adverse effects on renal function and bone marrow, decreased GFR and persistent neutropenia were identified as AEs of special interest. Key renal and hematological (TABLE 30) laboratory parameters were measured and listed below by Study HDP-CDV-201 treatment groups. TABLE 30 includes abnormal levels of serum creatinine, neutrophils, platelets, WBCs, and hemoglobin and includes data at Screening and during the treatment period.\nA common metric for unit based dosing of medications is by weight (mg/kg). When the distribution of weights was examined for all subjects participating in the study, the median was 78 kg and the lower 25th percentile weight was approximately 65 kg, which translates to a cut-off of ˜3 mg/kg for a 200 mg total weekly dose. Based upon this approach, a cut-off of 3 mg/kg was used to assess the frequency of diarrhea and associated GI AEs reported for the subjects in Cohorts 3 or 4a (TABLE 40).", "data": [{"smiles": "CCCCCCCCCCCCCCCCOCCCOP(=O)(O)COC(CO)Cn1ccc(N)nc1=O", "note": "(stereo not drawn) [HDP-CDV]", "values": [{"measurement": "TEAE ALT increased, Frequency", "result": "2 (8.0%)"}, {"measurement": "TEAE ALT increased, Grade 2", "result": "1 (4.0%)"}, {"measurement": "TEAE ALT increased, Grade 3", "result": "1 (4.0%)"}, {"measurement": "TEAE ALT increased, Grade 4", "result": 0}, {"measurement": "TEAE ALT increased, Grade 5", "result": 0}, {"measurement": "TEAE AML, Recurrent, Frequency", "result": "3 (12.0%)"}, {"measurement": "TEAE AML, Recurrent, Grade 2", "result": 0}, {"measurement": "TEAE AML, Recurrent, Grade 3", "result": 0}, {"measurement": "TEAE AML, Recurrent, Grade 4", "result": "1 (4.0%)"}, {"measurement": "TEAE AML, Recurrent, Grade 5", "result": 0}, {"measurement": "TEAE AST increased, Frequency", "result": "1 (4.0%)"}, {"measurement": "TEAE AST increased, Grade 2", "result": 0}, {"measurement": "TEAE AST increased, Grade 3", "result": "1 (4.0%)"}, {"measurement": "TEAE AST increased, Grade 4", "result": 0}, {"measurement": "TEAE AST increased, Grade 5", "result": 0}, {"measurement": "TEAE Abdominal pain, Frequency", "result": "4 (16.0%)"}, {"measurement": "TEAE Abdominal pain, Grade 2", "result": 0}, {"measurement": "TEAE Abdominal pain, Grade 3", "result": "1 (4.0%)"}, {"measurement": "TEAE Abdominal pain, Grade 4", "result": 0}, {"measurement": "TEAE Abdominal pain, Grade 5", "result": 0}, {"measurement": "TEAE Acute GVHD, Frequency", "result": "6 (24.0%)"}, {"measurement": "TEAE Acute GVHD, Grade 2", "result": "2 (8.0%)"}, {"measurement": "TEAE Acute GVHD, Grade 3", "result": "1 (4.0%)"}, {"measurement": "TEAE Arthralgias, Frequency", "result": 0}, {"measurement": "TEAE Arthralgias, Grade 2", "result": 0}, {"measurement": "TEAE Arthralgias, Grade 3", "result": 0}, {"measurement": "TEAE Arthralgias, Grade 4", "result": 0}, {"measurement": "TEAE Arthralgias, Grade 5", "result": 0}, {"measurement": "TEAE Back Pain, Frequency", "result": 0}, {"measurement": "TEAE Back Pain, Grade 2", "result": 0}, {"measurement": "TEAE Back Pain, Grade 3", "result": 0}, {"measurement": "TEAE Back Pain, Grade 4", "result": 0}, {"measurement": "TEAE Back Pain, Grade 5", "result": 0}, {"measurement": "TEAE Decreased appetite, Frequency", "result": "4 (16.0%)"}, {"measurement": "TEAE Decreased appetite, Grade 2", "result": "1 (4.0%)"}, {"measurement": "TEAE Decreased appetite, Grade 3", "result": "1 (4.0%)"}, {"measurement": "TEAE Decreased appetite, Grade 4", "result": 0}, {"measurement": "TEAE Decreased appetite, Grade 5", "result": 0}, {"measurement": "TEAE Diarrhea, Frequency", "result": "3 (12.0%)"}, {"measurement": "TEAE Diarrhea, Grade 2", "result": "2 (8.0%)"}, {"measurement": "TEAE Diarrhea, Grade 3", "result": 0}, {"measurement": "TEAE Diarrhea, Grade 4", "result": 0}, {"measurement": "TEAE Diarrhea, Grade 5", "result": 0}, {"measurement": "TEAE Fatigue, Frequency", "result": "1 (4.0%)"}, {"measurement": "TEAE Fatigue, Grade 2", "result": 0}, {"measurement": "TEAE Fatigue, Grade 3", "result": 0}, {"measurement": "TEAE Fatigue, Grade 4", "result": 0}, {"measurement": "TEAE Fatigue, Grade 5", "result": 0}, {"measurement": "TEAE GGT Increased, Frequency", "result": 0}, {"measurement": "TEAE GGT Increased, Grade 2", "result": 0}, {"measurement": "TEAE GGT Increased, Grade 3", "result": 0}, {"measurement": "TEAE GGT Increased, Grade 4", "result": 0}, {"measurement": "TEAE GGT Increased, Grade 5", "result": 0}, {"measurement": "TEAE Generalized oedema, Frequency", "result": "1 (4.0%)"}, {"measurement": "TEAE Generalized oedema, Grade 2", "result": "1 (4.0%)"}, {"measurement": "TEAE Generalized oedema, Grade 3", "result": 0}, {"measurement": "TEAE Generalized oedema, Grade 4", "result": 0}, {"measurement": "TEAE Generalized oedema, Grade 5", "result": 0}, {"measurement": "TEAE Hyperbilirubinaemia, Frequency", "result": "1 (4.0%)"}, {"measurement": "TEAE Hyperbilirubinaemia, Grade 2", "result": 0}, {"measurement": "TEAE Hyperbilirubinaemia, Grade 3", "result": 0}, {"measurement": "TEAE Hyperbilirubinaemia, Grade 4", "result": "1 (4.0%)"}, {"measurement": "TEAE Hyperbilirubinaemia, Grade 5", "result": 0}, {"measurement": "TEAE Hyperglycaemia, Frequency", "result": "1 (4.0%)"}, {"measurement": "TEAE Hyperglycaemia, Grade 2", "result": "1 (4.0%)"}, {"measurement": "TEAE Hyperglycaemia, Grade 3", "result": 0}, {"measurement": "TEAE Hyperglycaemia, Grade 4", "result": 0}, {"measurement": "TEAE Hyperglycaemia, Grade 5", "result": 0}, {"measurement": "TEAE Hyperkalemia, Frequency", "result": "1 (4.0%)"}, {"measurement": "TEAE Hyperkalemia, Grade 2", "result": 0}, {"measurement": "TEAE Hyperkalemia, Grade 3", "result": 0}, {"measurement": "TEAE Hyperkalemia, Grade 4", "result": 0}, {"measurement": "TEAE Hyperkalemia, Grade 5", "result": 0}, {"measurement": "TEAE Hypocalcaemia, Frequency", "result": "1 (4.0%)"}, {"measurement": "TEAE Hypocalcaemia, Grade 2", "result": "1 (4.0%)"}, {"measurement": "TEAE Hypocalcaemia, Grade 3", "result": 0}, {"measurement": "TEAE Hypocalcaemia, Grade 4", "result": 0}, {"measurement": "TEAE Hypocalcaemia, Grade 5", "result": 0}, {"measurement": "TEAE Hypokalaemia, Frequency", "result": "4 (16.0%)"}, {"measurement": "TEAE Hypokalaemia, Grade 2", "result": 0}, {"measurement": "TEAE Hypokalaemia, Grade 3", "result": "2 (8.0%)"}, {"measurement": "TEAE Hypokalaemia, Grade 4", "result": 0}, {"measurement": "TEAE Hypokalaemia, Grade 5", "result": 0}, {"measurement": "TEAE Hyponatraemia, Frequency", "result": "3 (12.0%)"}, {"measurement": "TEAE Hyponatraemia, Grade 2", "result": "1 (4.0%)"}, {"measurement": "TEAE Hyponatraemia, Grade 3", "result": "1 (4.0%)"}, {"measurement": "TEAE Hyponatraemia, Grade 4", "result": 0}, {"measurement": "TEAE Hyponatraemia, Grade 5", "result": 0}, {"measurement": "TEAE LFT Abnormal, Frequency", "result": 0}, {"measurement": "TEAE LFT Abnormal, Grade 2", "result": 0}, {"measurement": "TEAE LFT Abnormal, Grade 3", "result": 0}, {"measurement": "TEAE LFT Abnormal, Grade 4", "result": 0}, {"measurement": "TEAE LFT Abnormal, Grade 5", "result": 0}, {"measurement": "TEAE Leukocytosis, Frequency", "result": "1 (4.0%)"}, {"measurement": "TEAE Leukocytosis, Grade 2", "result": 0}, {"measurement": "TEAE Leukocytosis, Grade 3", "result": 0}, {"measurement": "TEAE Leukocytosis, Grade 4", "result": 0}, {"measurement": "TEAE Leukocytosis, Grade 5", "result": 0}, {"measurement": "TEAE Nausea, Frequency", "result": "6 (24.0%)"}, {"measurement": "TEAE Nausea, Grade 2", "result": "2 (8.0%)"}, {"measurement": "TEAE Nausea, Grade 3", "result": "1 (4.0%)"}, {"measurement": "TEAE Nausea, Grade 4", "result": 0}, {"measurement": "TEAE Nausea, Grade 5", "result": 0}, {"measurement": "TEAE Neutropenia, Frequency", "result": "2 (8.0%)"}, {"measurement": "TEAE Neutropenia, Grade 2", "result": 0}, {"measurement": "TEAE Neutropenia, Grade 3", "result": "2 (8.0%)"}, {"measurement": "TEAE Neutropenia, Grade 4", "result": 0}, {"measurement": "TEAE Neutropenia, Grade 5", "result": 0}, {"measurement": "TEAE Pneumonia, Frequency", "result": "1 (4.0%)"}, {"measurement": "TEAE Pneumonia, Grade 2", "result": 0}, {"measurement": "TEAE Pneumonia, Grade 3", "result": 0}]}]}
